Data published in patent US10562909B2, “Fused quadracyclic compounds, compositions and uses thereof” (Tabomedex Biosciences, LLC, priority 2016, dated 2020).
pIC50: −log10 of the molar value.

Each molecule was assayed against MAPKAPK2 (Homo sapiens, UniProt P49137) (assay: MK2 Enzymatic Assay). Conditions: 0.5 nM MAPKAPK2, 3 μM ATP, 2 μM Ser/Thr4 peptide, 23° C., values given as concentration bins.
Chain of MAPKAPK2 (P49137 whole entry, species assumed): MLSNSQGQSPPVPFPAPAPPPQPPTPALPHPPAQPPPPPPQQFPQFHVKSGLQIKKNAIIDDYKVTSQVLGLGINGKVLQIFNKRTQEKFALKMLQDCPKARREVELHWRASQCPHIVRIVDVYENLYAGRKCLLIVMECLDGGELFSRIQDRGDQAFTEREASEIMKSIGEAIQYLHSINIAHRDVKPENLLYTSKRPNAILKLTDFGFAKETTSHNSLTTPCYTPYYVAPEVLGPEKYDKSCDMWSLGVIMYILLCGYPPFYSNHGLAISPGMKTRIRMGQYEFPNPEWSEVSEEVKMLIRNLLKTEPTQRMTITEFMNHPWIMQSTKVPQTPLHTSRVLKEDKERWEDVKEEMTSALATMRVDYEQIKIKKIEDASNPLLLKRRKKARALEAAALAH
Format: biochemical
How it was run: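 MAPKAPK2 (2× stock 1 nM) and peptide substrate (2× 4 μM) were preincubated 20 min, then started with ATP (2× stock 6 μM) for 120 min. After 120 min development, coumarin/fluorescein emission ratio gave percent phosphorylation against 0% and 100% phosphopeptide controls.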
Molecule `C[C@@H]1CN(c2ccc3c(c2)Cn2cc(-c4ccc(C#N)cc4)cc2-c2nnnn2-3)C[C@H](C)N1` [Compound 242, 4-(7-(cis-3,5-dimethylpiperazin-1-yl)-9H-benzo[e]pyrrolo[1,2-a]tetrazolo[5,1-c][1,4]diazepin-12-yl)benzonitrile] has a pIC50 of 7.00 to 7.30.
`CN(C)[C@@H]1CN(c2ccc3c(n2)Cn2cc(-c4ccc(F)cc4)cc2-c2nccn2-3)C[C@H]1O` [Compound 431, (3R,4R)-4-(dimethylamino)-1-(12-(4-fluorophenyl)-9H-imidazo[2,1-c]pyrido[3,2-e]pyrrolo[1,2-a][1,4]diazepin-7-yl)pyrrolidin-3-ol] showed a pIC50 of over 7.30.
With `CN(C)C[C@@H]1CN(c2ccc3c(c2)Cn2cc(-c4ccc(F)cc4)cc2-c2ncnn2-3)C[C@@H]1F` [Compound 500, 1-((3R,4R)-4-fluoro-1-(12-(4-fluorophenyl)-9H-benzo[e]pyrrolo[1,2-a][1,2,4]triazolo[5,1-c] [1,4]diazepin-7-yl)pyrrolidin-3-yl)-N,N-dimethylmethanamine] the pIC50 was 6.70 to 7.00.
Work on `C[C@@H]1CN(c2ccc3c(c2)Cn2cc(-c4ccc(F)cc4)cc2-c2nnnn2-3)C[C@H](C)N1` [Compound 395, 7-(cis-3,5-dimethylpiperazin-1-yl)-12-(4-fluorophenyl)-9H-benzo[e]pyrrolo[1,2-a]tetrazolo[5,1-c][1,4]diazepine] yielded a pIC50 of over 7.30.
`CN(C)C[C@@H]1CN(c2ccc3c(c2)Cn2cc(-c4ccc(C#N)cc4)cc2-c2nncn2-3)C[C@@H]1O` [Compound 82, 4-(7-((3R,4R)-3-((dimethylamino)methyl)-4-hydroxypyrrolidin-1-yl)-9H-benzo[e]pyrrolo[1,2-a][1,2,4]triazolo[3,4-c][1,4]diazepin-12-yl)benzonitrile] showed a pIC50 of over 7.30.
Work on `N[C@H]1CCCN(c2ccc3c(c2)Cn2cc(-c4ccc(F)cc4)cc2-c2nnnn2-3)C1` [Compound 390, (S)-1-(12-(4-fluorophenyl)-9H-benzo[e]pyrrolo[1,2-a]tetrazolo[5,1-c][1,4]diazepin-7-yl) piperidin-3-amine] yielded a pIC50 of 7.00 to 7.30.
Molecule `CN(C)C[C@H]1CN(c2ccc3c(c2)Cn2cc(-c4ccc(C#N)cc4)cc2-c2nncn2-3)C[C@@H]1O` [Compound 109, 4-(7-((3S,4R)-3-((dimethylamino)methyl)-4-hydroxypyrrolidin-1-yl)-9H-benzo[e]pyrrolo[1,2-a][1,2,4]triazolo[3,4-c][1,4]diazepin-12-yl)benzonitrile] has a pIC50 of over 7.30.
With `CN1CC2(CCN(c3ccc4c(c3)Cn3cc(-c5ccc(F)cc5)cc3-c3nccn3-4)C2)C1` [Compound 344, 12-(4-fluorophenyl)-7-(2-methyl-2,6-diazaspiro[3.4]octan-6-yl)-9H-benzo[e]imidazo[2,1-c] pyrrolo[1,2-a][1,4]diazepine] the pIC50 was over 7.30.
In the case of `O[C@@H]1CN(c2ccc3c(c2)Cn2cc(-c4ccc(F)cc4)cc2-c2nccn2-3)C[C@H]1CN1CCCC1` (relative stereo) [Compound 472, (Trans)-1-(12-(4-fluorophenyl)-9H-benzo[e]imidazo[2,1-c]pyrrolo[1,2-a][1,4]diazepin-7-yl)-4-(pyrrolidin-1-ylmethyl)pyrrolidin-3-ol], the pIC50 was over 7.30.
Molecule `NC[C@H]1CCN(c2ccc3c(c2)Cn2cc(-c4ccc(F)cc4)cc2-c2ncnn2-3)C1` [Compound 496, (R)-(1-(12-(4-fluorophenyl)-9H-benzo[e]pyrrolo[1,2-a][1,2,4]triazolo[5,1-c][1,4]diazepin-7-yl)pyrrolidin-3-yl)methanamine] has a pIC50 of 7.00 to 7.30.
`N[C@@H]1CCCN(c2ccc3c(c2)Cn2cc(-c4ccc(F)cc4)cc2-c2nnnn2-3)C1` [Compound 389, (R)-1-(12-(4-fluorophenyl)-9H-benzo[e]pyrrolo[1,2-a]tetrazolo[5,1-c][1,4]diazepin-7-yl) piperidin-3-amine] was tested, and the pIC50 was over 7.30.
`C[C@@H](CO)N(C)C1CCN(c2ccc3c(c2)Cn2cc(-c4ccc(C#N)cc4)cc2-c2nncn2-3)CC1` [Compound 104, (S)-4-(7-(4-((1-hydroxypropan-2-yl)(methyl)amino)piperidin-1-yl)-9H-benzo[e]pyrrolo[1,2-a][1,2,4]triazolo[3,4-c][1,4]diazepin-12-yl)benzonitrile] gave a pIC50 of 6.70 to 7.00.
In the case of `CC(C)[C@H](CO)NC[C@H]1CCN(c2ccc3c(c2)Cn2cc(-c4ccc(F)cc4)cc2-c2nccn2-3)C1` [Compound 358, (R)-2-((((R)-1-(12-(4-fluorophenyl)-9H-benzo[e]imidazo[2,1-c]pyrrolo[1,2-a][1,4]diazepin-7-yl)pyrrolidin-3-yl)methyl)amino)-3-methylbutan-1-ol], the pIC50 was over 7.30.
For `CC(C)(CO)NC[C@@H]1CCN(c2ccc3c(c2)Cn2cc(-c4ccc(F)cc4)cc2-c2ncnn2-3)C1` [Compound 425, (S)-2-(((1-(12-(4-fluorophenyl)-9H-benzo[e]pyrrolo[1,2-a][1,2,4]triazolo[5,1-c][1,4]diazepin-7-yl)pyrrolidin-3-yl)methyl)amino)-2-methylpropan-1-ol], the pIC50 was 7.00 to 7.30.
Molecule `CN1CC2(CCN(c3ccc4c(n3)Cn3cc(-c5ccc(F)cc5)cc3-c3nccn3-4)C2)C1` [Compound 441, 12-(4-fluorophenyl)-7-(2-methyl-2,6-diazaspiro[3.4]octan-6-yl)-9H-imidazo[2,1-c]pyrido[3,2-e]pyrrolo[1,2-a][1,4]diazepine] has a pIC50 of over 7.30.
`CN[C@@H]1CN(c2ccc3c(c2)Cn2cc(-c4ccc(F)cc4)cc2-c2nccn2-3)C[C@H]1CO` (relative stereo) [Compound 491, ((Trans)-1-(12-(4-fluorophenyl)-9H-benzo[e]imidazo[2,1-c]pyrrolo[1,2-a][1,4]diazepin-7-yl)-4-(methylamino)pyrrolidin-3-yl)methanol] showed a pIC50 of over 7.30.
`CN(C)[C@H]1CCN(c2ccc3c(c2)Cn2cc(-c4ccc(F)cc4)cc2-c2ncnn2-3)C1` [Compound 427, (S)-1-(12-(4-fluorophenyl)-9H-benzo[e]pyrrolo[1,2-a][1,2,4]triazolo[5,1-c][1,4]diazepin-7-yl)-N,N-dimethylpyrrolidin-3-amine] gave a pIC50 of 7.00 to 7.30.
Molecule `CN(C)C[C@H]1CN(c2ccc3c(n2)Cn2cc(-c4ccc(C#N)cc4)cc2-c2nccn2-3)C[C@H]1O` [Compound 298, 4-(7-((3S,4S)-3-((dimethylamino)methyl)-4-hydroxypyrrolidin-1-yl)-9H-imidazo[2,1-c]pyrido[3,2-e]pyrrolo[1,2-a][1,4]diazepin-12-yl)benzonitrile] has a pIC50 of over 7.30.
In the case of `CNCc1cnc2n1-c1ccc(N3CC[C@@H](N(C)C)C3)cc1Cn1cc(-c3ccc(C#N)cc3)cc1-2` [Compound 276, 4-(7-((R)-3-(dimethylamino)pyrrolidin-1-yl)-3-((methylamino)methyl)-9H-benzo[e]imidazo[2,1-c]pyrrolo[1,2-a][1,4]diazepin-12-yl)benzonitrile], the pIC50 was over 7.30.
`CNC[C@@H]1CCN(c2ccc3c(c2)Cn2c(cc(-c4ccc(C#N)cc4)c2Cl)-c2nncn2-3)C1` [Compound 173, (S)-4-(11-chloro-7-(3-((methylamino)methyl)pyrrolidin-1-yl)-9H-benzo[e]pyrrolo[1,2-a][1,2,4]triazolo[3,4-c][1,4]diazepin-12-yl)benzonitrile] was tested, and the pIC50 was over 7.30.
`CN(C)[C@H]1CN(c2ccc3c(n2)Cn2cc(-c4ccc(F)cc4)cc2-c2nccn2-3)C[C@H]1O` [Compound 432, (3R,4S)-4-(dimethylamino)-1-(12-(4-fluorophenyl)-9H-imidazo[2,1-c]pyrido[3,2-e]pyrrolo[1,2-a][1,4]diazepin-7-yl)pyrrolidin-3-ol] was tested, and the pIC50 was 6.70 to 7.00.
